Results taken from ChEMBL document CHEMBL5143583, “Discovery of pyrroledione analogs as potent transient receptor potential canonical channel 5 inhibitors” (Bioorg Med Chem Lett, 2022).
Calls of active or inactive are those of the source. No cut-off for these calls is given here.

Assays:
[1] = target: T1, Short transient receptor potential channel 5 (Homo sapiens, UniProt Q9UL62); assay: Inhibition of TRPC5 channel (unknown origin) expressed in HEK293 cells assessed as inhibition of EA-evoked Ca2+ entry by measuring reduction in intracellular Ca2+ level by Fluo-4 dye based FLIPR assay; assay type: cell-based
T1 sequence (Q9UL62 whole entry): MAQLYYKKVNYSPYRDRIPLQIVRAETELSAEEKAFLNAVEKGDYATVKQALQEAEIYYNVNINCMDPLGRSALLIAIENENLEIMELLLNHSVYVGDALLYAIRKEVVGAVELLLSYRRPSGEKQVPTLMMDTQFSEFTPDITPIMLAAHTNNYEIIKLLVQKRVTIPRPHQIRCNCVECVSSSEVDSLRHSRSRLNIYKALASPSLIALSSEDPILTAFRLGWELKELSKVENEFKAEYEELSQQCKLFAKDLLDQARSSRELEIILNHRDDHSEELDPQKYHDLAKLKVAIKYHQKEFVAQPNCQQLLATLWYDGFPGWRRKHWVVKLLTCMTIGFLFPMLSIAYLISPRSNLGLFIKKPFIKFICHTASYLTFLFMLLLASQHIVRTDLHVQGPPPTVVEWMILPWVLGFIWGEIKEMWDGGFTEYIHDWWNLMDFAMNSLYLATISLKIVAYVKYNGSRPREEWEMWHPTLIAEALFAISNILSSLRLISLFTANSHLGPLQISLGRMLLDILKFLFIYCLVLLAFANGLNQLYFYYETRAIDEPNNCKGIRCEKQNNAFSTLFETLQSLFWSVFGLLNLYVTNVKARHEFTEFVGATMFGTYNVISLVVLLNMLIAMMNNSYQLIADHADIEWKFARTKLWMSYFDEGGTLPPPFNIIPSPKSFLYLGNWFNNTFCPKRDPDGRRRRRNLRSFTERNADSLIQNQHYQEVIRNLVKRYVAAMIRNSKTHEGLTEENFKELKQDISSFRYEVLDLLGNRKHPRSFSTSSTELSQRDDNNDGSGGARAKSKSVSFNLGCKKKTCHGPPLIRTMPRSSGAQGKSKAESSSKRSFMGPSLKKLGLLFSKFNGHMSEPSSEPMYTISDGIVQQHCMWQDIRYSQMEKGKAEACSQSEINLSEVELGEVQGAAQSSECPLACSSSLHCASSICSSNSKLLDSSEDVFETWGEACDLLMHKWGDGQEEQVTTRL

Hepatocyte = assay: Cytotoxicity against primary mouse hepatocytes assessed as reduction in cell viability at 1 to 10 uM by MTT assay; assay type: toxicity, cell-based; details: dose 1-10 µM
MPC-5 = assay: Reno-protectant activity against protamine sulfate-induced podocytes injury in mouse MPC5 cells assessed as reduction in PS-induced podocytes rearrangement and rupture of stress fibers at 0.1 to 3 uM pretreated for 30 mins followed by stimulation with PS for 100 mins; assay type: functional, cell-based; details: dose 0.1-3 µM, time 130.0 min, DDE = dose-dependent effect
[2] = target: T2, Short transient receptor potential channel 4 (Homo sapiens) (UniProt Q9UBN4); assay: (§1) Inhibition of TRPC4 channel (unknown origin) expressed in HEK293 cells assessed as inhibition of EA-evoked Ca2+ entry by measuring reduction in intracellular Ca2+ level by Fluo-4 dye based FLIPR assay; assay type: cell-based; details: DDE = dose-dependent effect
T2 sequence (whole entry): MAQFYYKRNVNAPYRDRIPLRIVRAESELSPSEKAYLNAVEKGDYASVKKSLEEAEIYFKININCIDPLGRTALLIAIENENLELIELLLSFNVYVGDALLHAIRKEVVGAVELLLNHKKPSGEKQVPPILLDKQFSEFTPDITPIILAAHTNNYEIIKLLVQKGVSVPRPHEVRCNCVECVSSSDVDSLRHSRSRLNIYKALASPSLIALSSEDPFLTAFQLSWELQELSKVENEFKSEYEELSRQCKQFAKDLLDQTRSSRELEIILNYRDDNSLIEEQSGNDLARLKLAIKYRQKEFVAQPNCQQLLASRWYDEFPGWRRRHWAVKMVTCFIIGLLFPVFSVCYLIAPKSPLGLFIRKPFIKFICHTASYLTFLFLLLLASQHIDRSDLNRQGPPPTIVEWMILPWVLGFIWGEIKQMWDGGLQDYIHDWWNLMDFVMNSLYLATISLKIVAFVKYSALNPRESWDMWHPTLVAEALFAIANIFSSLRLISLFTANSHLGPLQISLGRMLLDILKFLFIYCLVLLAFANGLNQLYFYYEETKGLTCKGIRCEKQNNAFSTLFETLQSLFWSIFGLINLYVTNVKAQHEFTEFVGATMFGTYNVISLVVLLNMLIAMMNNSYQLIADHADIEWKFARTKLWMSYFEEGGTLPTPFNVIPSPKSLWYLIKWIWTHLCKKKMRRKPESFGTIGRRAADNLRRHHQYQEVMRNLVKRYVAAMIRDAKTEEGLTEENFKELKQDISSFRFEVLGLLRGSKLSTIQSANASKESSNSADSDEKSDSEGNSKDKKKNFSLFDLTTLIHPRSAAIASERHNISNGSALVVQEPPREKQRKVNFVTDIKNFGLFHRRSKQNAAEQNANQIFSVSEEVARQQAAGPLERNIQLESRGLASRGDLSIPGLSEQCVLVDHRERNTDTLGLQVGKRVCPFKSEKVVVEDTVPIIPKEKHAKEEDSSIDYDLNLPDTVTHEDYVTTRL

[3] = target: T3, Short transient receptor potential channel 4 (Homo sapiens, UniProt Q9UBN4); assay: as §1; assay type: cell-based
T3 sequence (Q9UBN4 whole entry): T2 sequence (whole entry)

[4] = target: T4, Short transient receptor potential channel 3 (Homo sapiens) (UniProt Q13507); assay: Inhibition of human TRPC3 channel expressed in HEK293 cells assessed as inhibition of OAG-evoked Ca2+ entry by measuring reduction in intracellular Ca2+ level by Fluo-4 dye based FLIPR assay; assay type: cell-based
T4 sequence (whole entry): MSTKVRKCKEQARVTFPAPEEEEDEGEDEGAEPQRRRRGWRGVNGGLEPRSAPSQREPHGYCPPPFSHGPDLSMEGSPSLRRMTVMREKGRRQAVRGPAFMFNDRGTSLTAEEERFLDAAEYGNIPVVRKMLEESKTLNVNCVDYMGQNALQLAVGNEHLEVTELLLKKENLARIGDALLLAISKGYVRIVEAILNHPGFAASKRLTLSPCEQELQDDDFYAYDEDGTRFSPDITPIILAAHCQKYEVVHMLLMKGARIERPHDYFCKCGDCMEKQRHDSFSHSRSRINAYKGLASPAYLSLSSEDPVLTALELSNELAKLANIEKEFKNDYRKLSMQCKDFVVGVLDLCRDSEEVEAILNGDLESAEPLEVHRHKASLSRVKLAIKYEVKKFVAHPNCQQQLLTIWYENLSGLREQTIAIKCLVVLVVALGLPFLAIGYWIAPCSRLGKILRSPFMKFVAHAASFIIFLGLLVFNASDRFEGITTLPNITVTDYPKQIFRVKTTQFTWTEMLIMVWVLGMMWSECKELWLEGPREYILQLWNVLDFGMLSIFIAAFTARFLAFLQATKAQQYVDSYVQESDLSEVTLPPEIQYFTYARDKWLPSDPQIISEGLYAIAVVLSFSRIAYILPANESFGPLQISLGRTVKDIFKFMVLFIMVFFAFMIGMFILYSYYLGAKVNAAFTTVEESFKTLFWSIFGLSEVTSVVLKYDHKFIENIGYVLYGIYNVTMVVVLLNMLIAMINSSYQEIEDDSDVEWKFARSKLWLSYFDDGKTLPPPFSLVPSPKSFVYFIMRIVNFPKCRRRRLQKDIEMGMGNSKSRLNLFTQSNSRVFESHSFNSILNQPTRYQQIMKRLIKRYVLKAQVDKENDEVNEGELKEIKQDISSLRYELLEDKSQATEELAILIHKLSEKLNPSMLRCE

[5] = Cytotoxicity against mouse MPC5 cells assessed as reduction in cell viability at 1 to 10 uM by MTT assay; assay type: toxicity, cell-based; details: mpc-5, 10 µM, dose 1-10 µM
[6] = target: T1, Short transient receptor potential channel 5; assay: Inhibition of human TRPC5 channel expressed in HEK293 cells assessed as inhibition of EA-evoked channel current measured at +80 mV by whole-cell voltage clamp assay; assay type: cell-based

| SMILES | IC50 [1] [µM] | other results |
| --- | --- | --- |
| O=C1NC(=O)C(N2CCc3c(ncnc3Oc3ccc(F)cc3C3CCCC3)C2)=C1Cl | > 10 | – |
| O=C1NC(=O)C(N2CCc3ncn(Cc4ccccc4C(F)(F)F)c3C2)=C1Cl | 0.86 | – |
| Cc1cc(F)ccc1Oc1ncnc2c1CCN(C1=C(Cl)C(=O)NC1=O)C2 | > 10 | – |
| O=C1CN(c2cc(=O)[nH]c(=O)[nH]2)CCN1Cc1ccccc1C(F)(F)F | > 10 | – |
| O=C1CN(c2cn[nH]c(=O)c2Cl)CN1Cc1ccccc1C(F)(F)F | > 10 | – |
| N#Cc1cc(F)ccc1Oc1ncnc2c1CCN(C1=C(Cl)C(=O)NC1=O)C2 | 0.664 | – |
| O=C(NCc1ccccc1C(F)(F)F)C1CN(c2cn[nH]c(=O)c2Cl)C1 | > 10 | – |
| O=C1CN(c2cc(=O)[nH]cn2)CCN1Cc1ccccc1C(F)(F)F | > 10 | – |
| CCc1ccccc1Oc1ncnc2c1CCN(C1=C(Cl)C(=O)NC1=O)C2 | 1.07 | – |
| CCc1nc2c(c(Oc3ccc(F)cc3C(F)(F)F)n1)CCN(C1=C(Cl)C(=O)NC1=O)C2 | 0.798 | – |
| Cn1ncc(N2CCN(Cc3ccccc3C(F)(F)F)C(=O)C2)c(Cl)c1=O | > 10 | – |
| CN(CC(=O)NCc1ccccc1C(F)(F)F)c1cn[nH]c(=O)c1Cl | > 10 | – |
| O=C1NC(=O)C(N2CCc3c(ncnc3Oc3ccc(C(F)(F)F)cc3)C2)=C1Cl | > 10 | – |
| O=C1NC(=O)C(N2CCc3c(ncnc3Oc3ccc(F)cc3CC(F)(F)F)C2)=C1Cl | 2.54 | – |
| O=C1NC(=O)C(N2CCc3c(ncnc3Oc3ccc(F)cc3Cl)C2)=C1Cl | 0.28 | – |
| O=C(CC1CN(c2cn[nH]c(=O)c2Cl)C1)NCc1ccccc1C(F)(F)F | > 10 | – |
| O=C1NC(=O)C(N2CCc3c(ncnc3Oc3cccc(C(F)(F)F)c3)C2)=C1Cl | > 10 | – |

| SMILES | IC50 [1] [µM] | other results |
| --- | --- | --- |
| CN(Cc1ccccc1C(F)(F)F)C(=O)C1CN(c2cn[nH]c(=O)c2Cl)C1 | > 10 | – |
| O=C1NC(=O)C(N2CCN(Cc3ccccc3C(F)(F)F)C(=O)C2)=C1Cl | 10.4 | – |
| O=C1NC(=O)C(N2CCc3c(cnn3Cc3ccccc3C(F)(F)F)C2)=C1Cl | 0.955 | – |
| Cn1c(N2CCN(Cc3ccccc3C(F)(F)F)C(=O)C2)cc(=O)n(C)c1=O | > 10 | – |
| Cn1c(N2CCN(Cc3ccccc3C(F)(F)F)C(=O)C2)cc(=O)[nH]c1=O | > 10 | – |
| O=C1NC(=O)C(N2CCc3c(ncnc3Oc3ccc(F)cc3C(F)(F)F)C2)=C1Cl | 0.06 | Activity (Hepatocyte): Non-Toxic; Activity (MPC-5): Dde; inhibition [2]: Dde; IC50 [3]: 0.065 µM; inhibition [4]: Active; Activity [5]: Non-Toxic; IC50 [6]: 0.0141 µM |
| O=C1NC(=O)C(N2CCc3c(ncnc3Oc3ccc(F)cc3C3CCC3)C2)=C1Cl | > 10 | – |
| O=C1CN(c2cn[nH]c(=O)c2Cl)CCN1Cc1ccccc1C(F)(F)F | 0.211 | Activity (Hepatocyte): Non-Toxic; Activity (MPC-5): Dde; Activity [5]: Non-Toxic; IC50 [6]: 0.0501 µM |
| Cc1nc2c(c(Oc3ccc(F)cc3C(F)(F)F)n1)CCN(C1=C(Cl)C(=O)NC1=O)C2 | 0.125 | – |
| O=C1NC(=O)C(N2CCc3c(nc(C4CC4)nc3Oc3ccc(F)cc3C(F)(F)F)C2)=C1Cl | 2.08 | – |
| O=C1NC(=O)C(N2CCc3c(ncnc3Oc3ccc(Cl)cc3C(F)(F)F)C2)=C1Cl | 0.314 | – |
| O=C1NC(=O)C(N2CCc3c(ncnc3Oc3c(F)cccc3C(F)(F)F)C2)=C1Cl | 0.776 | – |
| O=C1NC(=O)C(N2CCc3c(ncnc3Oc3ccc(F)cc3C3CC3)C2)=C1Cl | 0.111 | – |
| O=C1NC(=O)C(N2CCc3c(ncnc3Oc3ccccc3Cl)C2)=C1Cl | 0.654 | – |
| C#Cc1cc(F)ccc1Oc1ncnc2c1CCN(C1=C(Cl)C(=O)NC1=O)C2 | 0.629 | – |
| O=C1CN(c2cn[nH]c(=O)c2)CCN1Cc1ccccc1C(F)(F)F | > 10 | – |
| O=C1NC(=O)C(N2CCc3c(ncnc3Oc3ccccc3C(F)(F)F)C2)=C1Cl | 0.452 | – |
